Results published in US11795196B2, “Mitochondria-targeting peptides” (Stealth BioTherapeutics Corp., priority 2017, dated 2023).

System: isolated rat hearts
Assay: Ischemia-reperfusion injury, Langendorff isolated heart preparation
Details: 30 min LAD occlusion + 120 min reperfusion, compound 1 μM in perfusion solution, mean; for White Necrotic Area, % of area at risk: only white necrotic tissue

| Structure (SMILES) | Infarct size, % of area at risk [%] | White Necrotic Area, % of area at risk [%] |
| --- | --- | --- |
| Cc1cc(O)cc(C)c1C[C@H](NC(=O)[C@H](N)CCCNC(=N)N)C(=O)N[C@@H](Cc1c[nH]cn1)c1nc(CCc2ccccc2)no1 [Example 53, (R)-N-((S)-1-(((S)-2-(1H-imidazol-4-yl)-1-(3 phenethyl-1,2,4-oxadiazol-5 yl)ethyl)amino)-3-(4-hydroxy-2,6-dimethylphenyl)-1-oxopropan-2-yl)-2-amino-5-guanidinopentanamide] | 30 | 21 |
| Cc1cc(O)cc(C)c1C[C@H](NC(=O)[C@H](N)CCNC(=N)N)C(=O)N[C@@H](CCCCN)c1nc(Cc2ccccc2)no1 [Example 64, (R)-2-amino-N-((S)-1-(((S)-5-amino-1-(3-benzyl-1,2,4-oxadiazol-5 yl)pentyl)amino)-3-(4-hydroxy-2,6-dimethylphenyl)-1-oxopropan-2-yl)-4-guanidinobutanamide] | 38 | 20 |
| Cc1cc(O)cc(C)c1C[C@H](NC(=O)[C@H](N)CCCn1ccnc1N)C(=O)N[C@@H](CCCCN)c1nc(CC2CCCCC2)no1 [Example 65, (R)-2-amino-N-((S)-1-(((S)-5-amino-1-(3-(cyclohexylmethyl)-1,2,4-oxadiazol-5 yl)pentyl)amino)-3-(4-hydroxy-2,6-dimethylphenyl)-1-oxopropan-2-yl)-5-(2-amino-1H-imidazol-1-yl)pentanamide] | 24 | 17 |
| Cc1cc(O)cc(C)c1C[C@H](NC(=O)[C@H](N)CCNC(=N)N)C(=O)N[C@@H](Cc1c[nH]cn1)c1nc(CC23CC4CC(CC(C4)C2)C3)no1 [Example 68, (R)-N-((S)-1-(((S)-1-(3-(adamantan-1-yl)methyl-1,2,4-oxadiazol-5-yl)-2-(1H-imidazol-4 yl)ethyl)amino)-3-(4-hydroxy-2,6-dimethylphenyl)-1-oxopropan-2-yl)-2-amino-4-guanidinobutanamide] | 35 | 18 |
